Laboratory results published in ChEMBL document CHEMBL3991601, “The target landscape of clinical kinase drugs” (Science, 2017).
Active and inactive are the calls of the source. Cut-off read from the data, not from the text of the source, for most assays here: actives have a measured Kd and inactives only a lower limit.

Key:
[1] = target: Serine/threonine-protein kinase MRCK beta (Homo sapiens, UniProt Q9Y5S2)
[2] = target: Casein kinase II subunit alpha' (Homo sapiens, UniProt P19784)
Scaffold protein ILK = target: T1, Scaffold protein ILK (Homo sapiens, UniProt Q13418)
T1 sequence (Q13418 whole entry): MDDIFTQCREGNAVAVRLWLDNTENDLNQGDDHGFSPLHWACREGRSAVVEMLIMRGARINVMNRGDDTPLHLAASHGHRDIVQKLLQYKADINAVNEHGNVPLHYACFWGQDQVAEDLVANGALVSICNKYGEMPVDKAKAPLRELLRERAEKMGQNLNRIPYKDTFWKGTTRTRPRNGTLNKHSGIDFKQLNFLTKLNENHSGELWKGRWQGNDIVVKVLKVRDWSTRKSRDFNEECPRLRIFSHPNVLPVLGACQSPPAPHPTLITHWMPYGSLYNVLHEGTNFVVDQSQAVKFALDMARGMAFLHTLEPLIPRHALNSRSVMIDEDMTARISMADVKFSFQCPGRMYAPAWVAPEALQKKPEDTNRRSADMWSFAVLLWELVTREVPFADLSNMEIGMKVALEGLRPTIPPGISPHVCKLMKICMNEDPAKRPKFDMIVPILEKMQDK

[3] = target: Bone morphogenetic protein receptor type-1A (Homo sapiens, UniProt P36894)
Chain of Bone morphogenetic protein receptor type-1A (P36894 whole entry, canonical isoform): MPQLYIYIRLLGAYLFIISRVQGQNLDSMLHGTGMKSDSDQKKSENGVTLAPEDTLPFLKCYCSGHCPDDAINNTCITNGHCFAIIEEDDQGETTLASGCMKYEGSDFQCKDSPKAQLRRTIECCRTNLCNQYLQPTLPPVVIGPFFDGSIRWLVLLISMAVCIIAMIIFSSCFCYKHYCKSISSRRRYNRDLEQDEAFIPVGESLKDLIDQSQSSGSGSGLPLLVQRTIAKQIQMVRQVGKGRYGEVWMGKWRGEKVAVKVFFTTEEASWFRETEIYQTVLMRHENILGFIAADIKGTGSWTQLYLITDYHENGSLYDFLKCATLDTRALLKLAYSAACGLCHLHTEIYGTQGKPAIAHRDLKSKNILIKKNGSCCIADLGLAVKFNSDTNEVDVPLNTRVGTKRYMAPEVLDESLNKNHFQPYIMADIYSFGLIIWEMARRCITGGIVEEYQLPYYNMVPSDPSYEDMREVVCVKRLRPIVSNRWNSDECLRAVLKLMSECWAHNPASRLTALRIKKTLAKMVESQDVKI

[4] = target: Casein kinase I isoform gamma-1 (Homo sapiens, UniProt Q9HCP0)
Chain of Casein kinase I isoform gamma-1 (Q9HCP0 whole entry, canonical isoform): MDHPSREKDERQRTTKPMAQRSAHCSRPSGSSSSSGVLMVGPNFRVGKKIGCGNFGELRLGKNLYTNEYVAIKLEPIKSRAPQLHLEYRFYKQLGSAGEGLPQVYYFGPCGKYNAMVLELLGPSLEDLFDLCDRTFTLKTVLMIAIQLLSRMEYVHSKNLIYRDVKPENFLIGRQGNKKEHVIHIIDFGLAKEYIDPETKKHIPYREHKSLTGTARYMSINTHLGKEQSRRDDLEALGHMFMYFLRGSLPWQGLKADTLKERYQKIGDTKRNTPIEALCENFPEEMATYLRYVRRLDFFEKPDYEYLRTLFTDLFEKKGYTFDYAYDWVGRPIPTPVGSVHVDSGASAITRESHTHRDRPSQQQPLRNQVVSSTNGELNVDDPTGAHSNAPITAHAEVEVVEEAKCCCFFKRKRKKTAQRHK

[5] = target: Casein kinase I isoform alpha (Homo sapiens, UniProt P48729)
Chain of Casein kinase I isoform alpha (P48729 whole entry, canonical isoform): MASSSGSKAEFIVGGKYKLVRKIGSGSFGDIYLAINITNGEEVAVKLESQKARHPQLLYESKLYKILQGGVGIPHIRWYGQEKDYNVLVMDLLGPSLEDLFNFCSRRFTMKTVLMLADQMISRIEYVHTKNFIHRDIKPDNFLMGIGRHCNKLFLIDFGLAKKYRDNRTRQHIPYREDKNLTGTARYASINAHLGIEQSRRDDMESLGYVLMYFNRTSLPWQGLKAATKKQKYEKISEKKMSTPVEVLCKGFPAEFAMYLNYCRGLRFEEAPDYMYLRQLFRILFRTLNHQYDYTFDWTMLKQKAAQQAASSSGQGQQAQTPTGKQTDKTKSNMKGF

TGF-beta receptor type-1 = target: T2, TGF-beta receptor type-1 (Homo sapiens, UniProt P36897)
T2 sequence (P36897 whole entry): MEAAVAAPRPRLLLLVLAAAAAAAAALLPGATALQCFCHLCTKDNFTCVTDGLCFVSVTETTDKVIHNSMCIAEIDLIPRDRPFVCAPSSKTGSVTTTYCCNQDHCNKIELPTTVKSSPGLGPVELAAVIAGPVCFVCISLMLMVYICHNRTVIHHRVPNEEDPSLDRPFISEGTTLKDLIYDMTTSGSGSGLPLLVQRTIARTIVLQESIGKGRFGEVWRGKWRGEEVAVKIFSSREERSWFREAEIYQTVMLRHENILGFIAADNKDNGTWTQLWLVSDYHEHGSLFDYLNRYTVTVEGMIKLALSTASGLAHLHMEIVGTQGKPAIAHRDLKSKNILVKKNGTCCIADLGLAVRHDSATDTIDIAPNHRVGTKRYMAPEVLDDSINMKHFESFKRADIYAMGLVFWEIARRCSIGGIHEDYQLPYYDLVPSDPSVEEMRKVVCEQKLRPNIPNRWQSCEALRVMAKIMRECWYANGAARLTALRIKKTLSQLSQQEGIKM

Deoxycytidine kinase = Deoxycytidine kinase (Homo sapiens, UniProt P27707)
Chain of Deoxycytidine kinase (P27707 whole entry): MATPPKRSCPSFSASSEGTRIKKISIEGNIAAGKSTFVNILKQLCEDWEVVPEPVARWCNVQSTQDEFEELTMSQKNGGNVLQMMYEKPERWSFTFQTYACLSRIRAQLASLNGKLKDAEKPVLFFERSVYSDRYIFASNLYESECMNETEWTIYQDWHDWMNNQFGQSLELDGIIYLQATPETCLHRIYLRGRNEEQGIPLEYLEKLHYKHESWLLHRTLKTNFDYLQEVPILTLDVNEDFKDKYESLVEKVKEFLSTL

[6] = target: Serine/threonine-protein kinase N1 (Homo sapiens, UniProt Q16512)
Chain of Serine/threonine-protein kinase N1 (Q16512 whole entry): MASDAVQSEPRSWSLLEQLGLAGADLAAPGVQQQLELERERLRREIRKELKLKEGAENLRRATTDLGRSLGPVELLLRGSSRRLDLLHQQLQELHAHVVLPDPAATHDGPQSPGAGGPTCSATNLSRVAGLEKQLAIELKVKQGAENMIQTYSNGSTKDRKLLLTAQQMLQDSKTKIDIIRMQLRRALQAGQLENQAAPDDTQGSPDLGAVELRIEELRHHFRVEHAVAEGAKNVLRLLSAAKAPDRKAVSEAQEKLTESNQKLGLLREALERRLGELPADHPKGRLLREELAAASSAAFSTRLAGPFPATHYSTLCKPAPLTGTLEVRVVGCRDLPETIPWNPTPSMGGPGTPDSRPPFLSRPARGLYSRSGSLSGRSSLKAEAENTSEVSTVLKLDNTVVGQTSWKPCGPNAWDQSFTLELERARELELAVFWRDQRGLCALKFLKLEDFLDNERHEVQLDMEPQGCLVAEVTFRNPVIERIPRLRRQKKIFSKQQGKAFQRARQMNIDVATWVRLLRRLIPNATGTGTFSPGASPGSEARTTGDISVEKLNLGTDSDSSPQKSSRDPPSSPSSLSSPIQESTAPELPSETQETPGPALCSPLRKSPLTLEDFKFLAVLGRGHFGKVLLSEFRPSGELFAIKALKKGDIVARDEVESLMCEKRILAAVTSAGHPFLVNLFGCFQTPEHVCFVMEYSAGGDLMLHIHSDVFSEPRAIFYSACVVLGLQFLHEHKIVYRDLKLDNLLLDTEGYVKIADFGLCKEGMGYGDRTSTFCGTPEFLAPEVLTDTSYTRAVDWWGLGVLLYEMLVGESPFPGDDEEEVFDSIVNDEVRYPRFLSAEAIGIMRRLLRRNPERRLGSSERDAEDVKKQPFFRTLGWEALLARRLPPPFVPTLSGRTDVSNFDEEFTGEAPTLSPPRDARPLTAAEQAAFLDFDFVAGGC

Aurora kinase B = Aurora kinase B (Homo sapiens, UniProt Q96GD4)
Chain of Aurora kinase B (Q96GD4 whole entry): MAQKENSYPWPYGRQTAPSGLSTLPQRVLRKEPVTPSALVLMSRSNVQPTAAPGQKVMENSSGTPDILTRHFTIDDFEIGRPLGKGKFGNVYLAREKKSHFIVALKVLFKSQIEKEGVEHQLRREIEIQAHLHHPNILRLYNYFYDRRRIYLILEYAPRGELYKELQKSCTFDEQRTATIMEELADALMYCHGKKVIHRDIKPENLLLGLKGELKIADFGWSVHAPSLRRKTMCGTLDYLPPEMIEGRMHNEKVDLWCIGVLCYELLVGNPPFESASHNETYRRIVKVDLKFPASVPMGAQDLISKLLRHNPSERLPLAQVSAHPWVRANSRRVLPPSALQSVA

[7] = target: T3, Serine/threonine-protein kinase Nek9 (Homo sapiens, UniProt Q8TD19)
T3 sequence (Q8TD19 whole entry): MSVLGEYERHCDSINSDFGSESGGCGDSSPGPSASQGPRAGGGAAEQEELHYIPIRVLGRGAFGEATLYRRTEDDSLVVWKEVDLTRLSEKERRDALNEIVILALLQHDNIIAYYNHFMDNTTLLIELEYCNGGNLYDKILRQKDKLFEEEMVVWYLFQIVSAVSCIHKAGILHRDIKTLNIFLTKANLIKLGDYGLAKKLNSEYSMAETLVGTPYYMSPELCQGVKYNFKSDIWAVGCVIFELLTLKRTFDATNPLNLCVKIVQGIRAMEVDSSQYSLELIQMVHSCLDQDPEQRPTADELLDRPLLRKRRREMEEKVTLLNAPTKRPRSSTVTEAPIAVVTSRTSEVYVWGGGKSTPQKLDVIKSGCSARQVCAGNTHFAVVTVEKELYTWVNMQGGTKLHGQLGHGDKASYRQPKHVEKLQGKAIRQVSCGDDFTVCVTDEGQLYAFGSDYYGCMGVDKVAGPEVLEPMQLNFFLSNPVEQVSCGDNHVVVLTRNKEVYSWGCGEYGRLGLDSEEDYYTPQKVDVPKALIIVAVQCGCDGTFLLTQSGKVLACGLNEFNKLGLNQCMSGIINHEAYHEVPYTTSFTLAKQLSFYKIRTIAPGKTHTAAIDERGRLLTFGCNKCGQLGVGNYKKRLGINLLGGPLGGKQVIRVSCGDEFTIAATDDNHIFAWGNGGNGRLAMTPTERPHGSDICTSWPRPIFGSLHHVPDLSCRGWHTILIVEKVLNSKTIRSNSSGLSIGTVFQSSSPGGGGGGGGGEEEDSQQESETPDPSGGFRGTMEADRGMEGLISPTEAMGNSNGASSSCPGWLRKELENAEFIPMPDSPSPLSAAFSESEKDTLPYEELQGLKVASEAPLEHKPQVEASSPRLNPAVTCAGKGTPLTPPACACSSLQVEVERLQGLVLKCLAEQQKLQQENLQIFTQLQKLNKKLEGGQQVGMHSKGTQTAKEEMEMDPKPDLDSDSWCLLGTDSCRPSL

[8] = target: Tyrosine-protein kinase SYK (Homo sapiens, UniProt P43405)
Note: in the data inactive means no Kd found up to 30 µM.

Chain of Serine/threonine-protein kinase MRCK beta (Q9Y5S2 whole entry): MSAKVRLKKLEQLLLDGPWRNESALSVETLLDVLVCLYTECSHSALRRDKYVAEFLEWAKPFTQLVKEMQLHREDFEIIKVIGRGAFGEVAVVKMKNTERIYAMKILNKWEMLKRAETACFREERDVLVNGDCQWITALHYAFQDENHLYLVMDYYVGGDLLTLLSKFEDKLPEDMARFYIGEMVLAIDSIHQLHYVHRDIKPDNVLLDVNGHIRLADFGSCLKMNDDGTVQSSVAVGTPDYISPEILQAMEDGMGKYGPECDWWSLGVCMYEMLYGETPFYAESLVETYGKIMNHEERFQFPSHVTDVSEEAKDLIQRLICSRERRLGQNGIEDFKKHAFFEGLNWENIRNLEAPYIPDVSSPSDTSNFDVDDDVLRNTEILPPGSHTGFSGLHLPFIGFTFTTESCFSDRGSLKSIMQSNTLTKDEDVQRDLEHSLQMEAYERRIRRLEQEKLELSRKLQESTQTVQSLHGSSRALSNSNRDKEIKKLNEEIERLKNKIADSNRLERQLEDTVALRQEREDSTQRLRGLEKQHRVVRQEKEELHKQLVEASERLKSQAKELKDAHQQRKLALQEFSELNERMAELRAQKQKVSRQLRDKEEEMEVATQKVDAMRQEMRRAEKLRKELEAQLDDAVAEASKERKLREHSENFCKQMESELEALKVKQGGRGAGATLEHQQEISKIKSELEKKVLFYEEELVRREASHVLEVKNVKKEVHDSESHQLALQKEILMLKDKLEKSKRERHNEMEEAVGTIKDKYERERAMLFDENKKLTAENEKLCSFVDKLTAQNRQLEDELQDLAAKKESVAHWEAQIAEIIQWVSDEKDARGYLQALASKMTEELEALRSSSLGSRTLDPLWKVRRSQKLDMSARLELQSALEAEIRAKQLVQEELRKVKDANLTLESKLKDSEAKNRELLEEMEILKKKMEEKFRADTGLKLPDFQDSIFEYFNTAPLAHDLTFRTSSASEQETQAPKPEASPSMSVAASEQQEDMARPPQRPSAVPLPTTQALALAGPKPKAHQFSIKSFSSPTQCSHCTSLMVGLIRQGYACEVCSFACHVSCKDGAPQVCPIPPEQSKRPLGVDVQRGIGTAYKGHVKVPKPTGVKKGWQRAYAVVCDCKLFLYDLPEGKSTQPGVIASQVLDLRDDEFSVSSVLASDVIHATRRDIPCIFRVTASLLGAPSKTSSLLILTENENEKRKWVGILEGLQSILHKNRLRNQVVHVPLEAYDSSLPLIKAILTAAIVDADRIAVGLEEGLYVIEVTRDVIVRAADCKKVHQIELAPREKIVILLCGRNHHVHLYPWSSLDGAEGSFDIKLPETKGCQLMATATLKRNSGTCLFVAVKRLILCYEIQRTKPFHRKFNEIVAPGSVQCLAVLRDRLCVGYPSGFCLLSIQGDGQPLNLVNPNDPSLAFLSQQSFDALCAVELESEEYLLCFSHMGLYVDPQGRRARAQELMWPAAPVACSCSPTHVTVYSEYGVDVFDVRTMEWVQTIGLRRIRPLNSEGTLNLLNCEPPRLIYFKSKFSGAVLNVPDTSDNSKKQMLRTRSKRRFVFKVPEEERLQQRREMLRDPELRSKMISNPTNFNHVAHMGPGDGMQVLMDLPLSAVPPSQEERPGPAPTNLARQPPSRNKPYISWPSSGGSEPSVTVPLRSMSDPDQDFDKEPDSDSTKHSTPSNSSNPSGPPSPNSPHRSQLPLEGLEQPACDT
Chain of Casein kinase II subunit alpha' (P19784 whole entry): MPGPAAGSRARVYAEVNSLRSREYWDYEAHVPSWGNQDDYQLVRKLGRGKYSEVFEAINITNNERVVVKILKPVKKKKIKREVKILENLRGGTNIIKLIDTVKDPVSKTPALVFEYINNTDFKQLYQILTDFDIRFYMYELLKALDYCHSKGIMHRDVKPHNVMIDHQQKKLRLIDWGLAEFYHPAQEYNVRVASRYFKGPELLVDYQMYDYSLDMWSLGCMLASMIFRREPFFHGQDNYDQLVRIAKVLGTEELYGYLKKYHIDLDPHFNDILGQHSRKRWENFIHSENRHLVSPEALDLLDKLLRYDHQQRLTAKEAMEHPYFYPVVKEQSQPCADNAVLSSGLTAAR

Kd [1]: > 30 µM (inactive)
Kd [2]: > 30 µM (inactive)
Kd (Scaffold protein ILK): > 30 µM (inactive)
Kd [3]: > 30 µM (inactive)
Kd [4]: > 30 µM (inactive)
Kd [5]: > 30 µM (inactive)
Kd (TGF-beta receptor type-1): > 30 µM (inactive)
Kd (Deoxycytidine kinase): > 30 µM (inactive)
Kd [6]: > 30 µM (inactive)
Kd (Aurora kinase B): > 30 µM (inactive)
Kd [8]: > 30 µM (inactive)
SMILES: COc1cc2ncnc(Nc3ccc(O)cc3)c2cc1OC [WHI-P131]
Kd [7]: > 30 µM (inactive)
